Test results taken from patent publication EP4603105A1, “PHARMACEUTICAL COMPOSITION CONTAINING CYCLIC COMPOUND HAVING SELECTIVE KRAS INHIBITORY EFFECT AGAINST HRAS AND NRAS” (CHUGAI SEIYAKU KABUSHIKI KAISHA, priority 2022, dated 2024).
Like-named read-outs stand apart in the source and are kept apart here. *1 amine or outer side, *2 acyl side, *3 side chain or, on linkers, in order; H or OH if unused. Where a SMILES comes first, the peptide text is derived from it. Bridges are numbered along the chain shown (N, C = ends). [ ]: non-standard residue; d: D form. The star is where a group is joined. hPhe(3-Cl-4-CF3) = N[C@@H](CCc1ccc(C(F)(F)F)c(Cl)c1)C(=O)O; X24 = CC(C)CN([C@@H](Cc1ccc(C(F)(F)F)cc1)C(=O)[*:2])[*:1]; NPrPhe(4-CF3) = CCCN[C@@H](Cc1ccc(C(F)(F)F)cc1)C(=O)O; NMeGly(cPent) = CN[C@H](C(=O)O)C1CCCC1; Pro(4,4-F2) = O=C(O)[C@@H]1CC(F)(F)CN1; NMeD = CN[C@@H](CC(=O)O)C(=O)O; NMeL = CN[C@@H](CC(C)C)C(=O)O; Morpholide = C1CN(*)CCO1; Ac5c = NC1(C(=O)O)CCCC1; Sar = CNCC(=O)O

Legend:
[1] = tested on: human lung cancer strain NCI-H441; format: cell-based
Outline: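 Signal came from […] measured per well once the reagent was added. Beforehand, cells were cultured at 37°C and 5% carbon dioxide on a compound series serially diluted in dimethyl sulfoxide.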

[2] = target: GDP-bound NRAS wild-type protein (Homo sapiens, UniProt P01111); assay: Binding to NRAS by surface plasmon resonance (SPR), KD and KD ratio to KRAS
Sequence of GDP-bound NRAS wild-type protein (P01111 whole entry): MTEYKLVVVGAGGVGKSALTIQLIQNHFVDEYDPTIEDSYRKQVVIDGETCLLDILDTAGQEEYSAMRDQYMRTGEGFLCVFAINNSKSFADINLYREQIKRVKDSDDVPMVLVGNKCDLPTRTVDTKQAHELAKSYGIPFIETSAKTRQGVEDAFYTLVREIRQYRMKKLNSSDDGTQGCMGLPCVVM
Outline: (§1)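 Measured at 30°C: SPR with GDP-loaded, E. coli-expressed biotin-Avi RAS captured (~100–300 RU), ascending 75 s compound injections, HBS pH 7.4 with GDP, MgCl2, 4% DMSO. KD from 1:1 fit.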

[3] = target: HRAS wild-type protein (Homo sapiens, UniProt P01112); assay: Binding to HRAS by surface plasmon resonance (SPR), KD and KD ratio to KRAS
Sequence of HRAS wild-type protein (P01112 whole entry): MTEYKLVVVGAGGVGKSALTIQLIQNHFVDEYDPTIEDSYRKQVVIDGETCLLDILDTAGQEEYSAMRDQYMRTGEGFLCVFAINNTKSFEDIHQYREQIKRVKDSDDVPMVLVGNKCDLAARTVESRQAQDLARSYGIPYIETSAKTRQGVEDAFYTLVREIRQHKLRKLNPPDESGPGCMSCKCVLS
Outline: as §1

[4] = ratio of KD for GDP-bound NRAS wild-type protein to KD for KRAS
[5] = ratio of KD for HRAS wild-type protein to KD for KRAS
[6] = ratio of the KD value with respect to GDP-bound NRAS wild-type protein to the KD value with respect to KRAS
[7] = ratio of the KD value with respect to HRAS wild-type protein to the KD value with respect to KRAS

Compound | IC50 [1] | NRAS /KRAS [2, 4] | HRAS /KRAS [3, 5] | also measured
CCCO[C@H]1CCN2C(=O)[C@H](CCc3cc(F)c(C(F)(F)F)c(F)c3)NC(=O)CN(C)C(=O)[C@H](Cc3ccc(C(F)(F)F)cc3)N3CCCC[C@@H](C3=O)N(C)C(=O)CN(C)C(=O)[C@H]([C@@H](C)CC)NC(=O)[C@H](CC(C)C)N(C)C(=O)C[C@@H](C(=O)N3CCOCC3)N(C)C(=O)[C@H](C3CCCC3)N(C)C(=O)C3(CCC3)NC(=O)[C@H]12 [PP1077] | 14.9 nM | B (a compound having 3 or more and less than 10 is denoted as B) | B (a compound having 3 or more and less than 10 is denoted as B) | –
CCCN1C(=O)CN(C)C(=O)CN(C)C(=O)[C@H]([C@@H](C)CC)NC(=O)[C@H](CC(C)C)N(C)C(=O)C[C@@H](C(=O)N2CCOCC2)N(C)C(=O)[C@H](C2CCCC2)N(C)C(=O)C2(CCCC2)NC(=O)[C@@H]2CC(F)(F)CN2C(=O)[C@H](CCc2ccc(C(F)(F)F)c(Cl)c2)NC(=O)CN(C)C(=O)[C@@H]1Cc1ccc(C(F)(F)F)cc1 [PP0195] ([NMeL]I[Sar][Sar][NPrPhe(4-CF3)][Sar][hPhe(3-Cl-4-CF3)][Pro(4,4-F2)][Ac5c][NMeGly(cPent)][NMeD]-Morpholide; lactam N-11) | 2.7 nM | B (a compound having 3 or more and less than 10 is denoted as B) | C (A compound having a KD ratio of 0.1 or more and less than 3 is denoted as C) | –
CCO[C@@H]1C[C@H]2C(=O)NC3(CC(C)(C)C3)C(=O)N(C)[C@@H](C(CC)CC)C(=O)N(C)[C@H](C(=O)N(C)C)CC(=O)N(C)[C@H]3CCCCC/C=C/c4ccc(cc4)C[C@@H](C(=O)N(C)CC(=O)N[C@@H](CCc4cc(F)c(C(F)(F)F)c(F)c4)C(=O)N2C1)N1CC/C=C\C[C@@H](C1=O)N(C)C(=O)CN(C)C(=O)[C@H]([C@@H](C)CC)NC3=O [PP3048] | 11.1 nM | A (a compound having 10 or more and less than 20 is denoted as A) | A (a compound having 10 or more and less than 20 is denoted as A) | –
CCC[C@H]1C(=O)N[C@@H]([C@@H](C)CC)C(=O)N(C)CC(=O)N(C)[C@H]2C/C=C\CCN(C2=O)[C@@H](Cc2ccc(C(F)(F)F)cc2)C(=O)N(C)CC(=O)N[C@@H](CCc2cc(F)c(C(F)(F)F)c(F)c2)C(=O)N2C[C@H](OCC)C[C@H]2C(=O)NC2(CCC2)C(=O)N(C)[C@@H](C2CCCC2)C(=O)N(C)[C@H](C(=O)N(C)CC)CC(=O)N1C [PP1304] | 8.8 nM | – | – | NRAS /KRAS ([2]; ratio of KD with respect to GDP-bound NRAS wild-type protein to KD with respect to KRAS): A (a compound having 10 or more and less than 20 is denoted as A); HRAS /KRAS ([3]; ratio of KD with respect to HRAS wild-type protein to KD with respect to KRAS): A (a compound having 10 or more and less than 20 is denoted as A)
CCCN1C(=O)CN(C)C(=O)CNC(=O)[C@H]([C@@H](C)CC)NC(=O)[C@H](CC(C)C)N(C)C(=O)C[C@@H](C(=O)N(C)C)N(C)C(=O)[C@H](C2CCCC2)N(C)C(=O)C2(CCCC2)NC(=O)[C@@H]2CC(F)(F)CN2C(=O)[C@H](CCc2ccc(C(F)(F)F)c(Cl)c2)NC(=O)CN(C)C(=O)[C@@H]1Cc1ccc(C(F)(F)F)cc1 [PP0419] ([NMeL]IG[Sar][NPrPhe(4-CF3)][Sar][hPhe(3-Cl-4-CF3)][Pro(4,4-F2)][Ac5c][NMeGly(cPent)][NMeD]-NMe2; lactam N-11) | 4.2 nM | – | – | NRAS /KRAS [2, 6]: B (a compound having 3 or more and less than 10 is denoted as B); HRAS /KRAS [3, 7]: C (A compound having a KD ratio of 0.1 or more and less than 3 is denoted as C)
CCO[C@H]1CCN2C(=O)[C@H](CCc3cc(F)c(C(F)(F)F)c(F)c3)NC(=O)CN(C)C(=O)[C@H](Cc3ccc(C(F)(F)F)cc3)N3CCCC[C@@H](C3=O)N(C)C(=O)CN(C)C(=O)[C@H]([C@@H](C)CC)NC(=O)[C@H](CC(C)C)N(C)C(=O)C[C@@H](C(=O)N3CCOCC3)N(C)C(=O)[C@H](C3CCCC3)N(C)C(=O)C3(CCC3)NC(=O)[C@H]12 [PP1076] | 4.6 nM | B (a compound having 3 or more and less than 10 is denoted as B) | B (a compound having 3 or more and less than 10 is denoted as B) | –
CCC(CC)[C@H]1C(=O)N(C)[C@H](C(=O)N(C)C)CC(=O)N(C)[C@@H](COC)C(=O)N[C@@H]([C@@H](C)CC)C(=O)N(C)CC(=O)N(C)[C@H]2C/C=C\CCN(C2=O)[C@@H](Cc2ccc(C(F)(F)F)cc2)C(=O)N(C)CC(=O)N[C@@H](CCc2ccc(Cl)c(Cl)c2)C(=O)N2CCCCC[C@H]2C(=O)NC2(CC(C)(C)C2)C(=O)N1C [PP2972] | 81.6 nM | AA (a compound having 20 or more is denoted as AA) | A (a compound having 10 or more and less than 20 is denoted as A) | –
CCO[C@@H]1C[C@H]2C(=O)NC3(CCC3)C(=O)N(C)[C@@H](C3CCCC3)C(=O)N(C)[C@H](C(=O)N(C)C)CC(=O)N(C)[C@@H](CC)C(=O)N[C@@H]([C@@H](C)CC)C(=O)N3CC[C@H]3C(=O)N(C)[C@H]3CC(C)=CCN(C3=O)[C@@H](Cc3ccc(C(F)(F)F)cc3)C(=O)N(C)CC(=O)N[C@@H](CCc3cc(F)c(C(F)(F)F)c(F)c3)C(=O)N2C1 [PP1035] | 128 nM | C (A compound having a KD ratio of 0.1 or more and less than 3 is denoted as C) | C (A compound having a KD ratio of 0.1 or more and less than 3 is denoted as C) | –
CCCN(C)C(=O)[C@@H]1CC(=O)N(C)[C@@H](C(C)C)C(=O)N[C@@H]([C@@H](C)CC)C(=O)N(C)CC(=O)N(C)[C@H]2C/C=C\CCN(C2=O)[C@@H](Cc2ccc(C(F)(F)F)cc2)C(=O)N(C)CC(=O)N[C@@H](CCc2cc(F)c(C(F)(F)F)c(F)c2)C(=O)N2C[C@H](OCC)C[C@H]2C(=O)NC2(CCC2)C(=O)N(C)[C@@H](C2CCCC2)C(=O)N1C [PP1992] | 17.7 nM | – | – | NRAS /KRAS [2, 6]: AA (a compound having 20 or more is denoted as AA); HRAS /KRAS [3, 7]: B (a compound having 3 or more and less than 10 is denoted as B)
CCO[C@@H]1C[C@H]2C(=O)NC3(CCC3)C(=O)N(C)[C@@H](C3CCCC3)C(=O)N(C)[C@H](C(=O)N(C)C)CC(=O)N(C)[C@@H](CC3CCC3)C(=O)N[C@@H]([C@@H](C)CC)C(=O)N(C)CC(=O)N(C)[C@H]3CCCCCN(C3=O)[C@@H](Cc3ccc(C(F)(F)F)cc3)C(=O)N(C)CC(=O)N[C@@H](CCc3cc(F)c(C(F)(F)F)c(F)c3)C(=O)N2C1 [PP0668] | 22.7 nM | – | – | NRAS /KRAS [2, 6]: B (a compound having 3 or more and less than 10 is denoted as B); HRAS /KRAS [3, 7]: B (a compound having 3 or more and less than 10 is denoted as B)
CCO[C@@H]1C[C@H]2C(=O)NC3(CC(C)(C)C3)C(=O)N(C)[C@@H](C3CCCC3)C(=O)N(C)[C@H](C(=O)N(C)C)CC(=O)N(C)[C@@H](CC3CC3)C(=O)N[C@@H]([C@@H](C)CC)C(=O)N(C)CC(=O)N(C)[C@H]3C/C=C\CCN(C3=O)[C@@H](Cc3ccc(C(F)(F)F)cc3)C(=O)N(C)CC(=O)N[C@@H](CCc3ccc(C(F)(F)F)c(Cl)c3)C(=O)N2C1 [PP1749] | 3.3 nM | – | – | NRAS /KRAS ([2]; ratio of KD value for GDP-bound NRAS wild-type protein to KD value for KRAS (SPR)): A (a compound having 10 or more and less than 20 is denoted as A); HRAS /KRAS ([3]; ratio of KD value for HRAS wild-type protein to KD value for KRAS (SPR)): A (a compound having 10 or more and less than 20 is denoted as A)
CCO[C@@H]1C[C@H]2C(=O)NC3(CC(C)(C)C3)C(=O)N(C)[C@@H](C3CCCC3)C(=O)N(C)[C@H](C(=O)N(C)C)CC(=O)N(C)[C@@H]([C@H](C)OC)C(=O)N[C@@H]([C@@H](C)CC)C(=O)N3CCC[C@H]3C(=O)N(C)[C@H]3C/C=C\CCN(C3=O)[C@@H](Cc3ccc(C)cc3)C(=O)N(C)CC(=O)N[C@@H](CCc3ccc(C(F)(F)F)c(Cl)c3)C(=O)N2C1 [PP3201] | 128 nM | A (a compound having 10 or more and less than 20 is denoted as A) | A (a compound having 10 or more and less than 20 is denoted as A) | –
CCC[C@H]1C(=O)N[C@@H]([C@@H](C)CC)C(=O)N(C)CC(=O)N(C)[C@H]2C/C=C\CCN(C2=O)[C@@H](Cc2ccc(C(F)(F)F)cc2)C(=O)N(C)CC(=O)N[C@@H](CCc2ccc(C3CC3)c(Cl)c2)C(=O)N2C[C@H](OCC)C[C@H]2C(=O)NC2(CC(C)(C)C2)C(=O)N(C)[C@@H](C2CCCC2)C(=O)N(C)[C@H](C(=O)N(C)C)CC(=O)N1C [PP2858] | – | A (a compound having 10 or more and less than 20 is denoted as A) | B (a compound having 3 or more and less than 10 is denoted as B) | IC50 ([1]; NCI-H441 cells, 4 days, CellTiter-Glo, read-out: NCl-H441 IC50): 11.8 nM
CC[C@H](C)[C@@H]1NC(=O)[C@H](CC(C)C)N(C)C(=O)C[C@@H](C(=O)N2CCOCC2)N(C)C(=O)[C@H](C2CCCC2)N(C)C(=O)C2(CCCC2)NC(=O)[C@@H]2CCCN2C(=O)[C@H](CCc2ccc(C(F)(F)F)c(Cl)c2)NC(=O)CN(C)C(=O)[C@H](Cc2ccc(C(F)(F)F)cc2)N(CC(C)C)C(=O)CN(C)C(=O)CN(C)C1=O [PP0121] ([NMeL]I[Sar][Sar][X24][Sar][hPhe(3-Cl-4-CF3)]P[Ac5c][NMeGly(cPent)][NMeD]-Morpholide; lactam N-11) | 29.5 nM | C (A compound having a KD ratio of 0.1 or more and less than 3 is denoted as C) | C (A compound having a KD ratio of 0.1 or more and less than 3 is denoted as C) | –
CCO[C@@H]1C[C@H]2C(=O)NC3(CCC3)C(=O)N(C)[C@@H](C3CCCC3)C(=O)N(C)[C@H](C(=O)N(C)C)CC(=O)N(C)[C@@H](CC3CCCC3)C(=O)N[C@@H]([C@@H](C)CC)C(=O)N(C)CC(=O)N(C)[C@H]3C/C=C\CCN(C3=O)[C@@H](Cc3ccc(C(F)(F)F)cc3)C(=O)N(C)CC(=O)N[C@@H](CCc3ccc(C(F)(F)F)c(Cl)c3)C(=O)N2C1 [PP2842] | 7.2 nM | A (a compound having 10 or more and less than 20 is denoted as A) | B (a compound having 3 or more and less than 10 is denoted as B) | –
